Tested on: 885724-159-R-J1-PDC complex spheroid viability
Test: Anticancer human tumor 885724-159-R-J1-PDC patient-derived pancreatic adenocarcinoma cell line growth inhibition [GQUAD]
Conditions: for IC50: curve of first compound; for viability, T/C: stronger effect = lower value; active = viability on the fitted dose curve at most 10% of control; inactive = the rest
From the text: DNA G-quadruplex Stabilizer Agents in Combinations in Complex Spheroids
A high-throughput screen of multi-cell type tumor spheroids was designed to identify active combinations of DNA G-quadruplex stabilizer agents and targeted small molecules. Complex spheroids include a stromal component modeled by human endothelial cells (HUVEC) and fibroblasts modeled by human mesenchymal stem cells (MSCs). The concentration ranges selected for each drug and investigational agent were based upon clinically achievable concentrations if the clinical Cmax of the agent was known.
Compounds. The drugs and investigational agents: pidnarulex (CX-5461; NSC782164), APTO-253 (NSC789042), BRACO-19 (NSC847499), peposertib (NSC802822), ceralasertib (NSC780249), elimusertib (NSC800525), camonsertib (NSC841442), AZD-1390 (NSC803789), olaparib (NSC753686), talazoparib (NSC767125), ART-558 (NSC835418), sotorasib (NSC818433), MRTX-1133 (NSC836407), SN-38 (NSC673596), topotecan (NSC609699), etoposide (NSC141540), doxorubicin (NSC123127), gemcitabine (NSC613327), 5-fluorouracil (NSC19893), paclitaxel (NSC125973), vemurafenib (NSC761431), panobinostat (NSC761190), R-306465 (JNJ-16241199; NSC773264), adavosertib (NSC754352), TP-3654 (NSC805149), carboplatin (NSC241240), KSQ-4279 (NSC840948), and staurosporine (NSC755774) were obtained from the National Cancer Institute (NCI) Developmental Therapeutics Program Chemical Repository (34). The FDA-approved anticancer drug set is available from the NCI Developmental Therapeutics Program. […] The stock solutions were prepared in dimethyl sulfoxide (DMSO, Sigma-Aldrich, St. Louis, MO, cat. D2650) at 800-fold the tested concentration and stored at -70 degrees C prior to their use. All drugs and investigational agents were tested over a range starting from a high concentration at or near the clinical Cmax and decreasing in half-log increments. If the clinical Cmax for an agent had not been determined, the highest concentration tested was 10 microM.
2.3 Cell Culture. All cells were maintained in an incubator at 37 degrees C and 5% CO2 with 95% humidity. The PDC lines were cultured according to standard operating procedures established by the NCI PDMR. All PDCs were thawed and cultured in Matrigel-coated flasks prepared with a working solution of 1X Ham's F-12 nutrient mix, without supplementation (Invitrogen, cat. 11765054), 100 U/mL penicillin-streptomycin (Invitrogen, cat. 15140122), and 2.5% Matrigel (Corning Inc., cat. 354248) for the first three passages. The 857933-349-R-J2-PDC line was cultured in 6C/Colon 1B media, which includes advanced DMEM/F-12 (Thermo Fisher Scientific, cat. 12634028), 10 mM HEPES (Thermo Fisher Scientific, cat. 15630080), 1X GlutaMAX supplement (Thermo Fisher Scientific, cat. 35050061), 0.1 mg/mL primocin (InvivoGen, cat. ant-pm-2), 10% defined fetal bovine serum, heat inactivated (HyClone Laboratories Inc., cat. SH30070.03HI), 50% L-WRN conditioned media (ATCC, cat. CRL-3276), 1.25 mM N-Acetyl-L-cysteine (Sigma-Aldrich, cat. A9165), 10 mM nicotinamide (Sigma-Aldrich, cat. N0636), 1X B-27 supplement (Thermo Fisher Scientific, cat. 17504044), 1X N-2 supplement (Thermo Fisher Scientific, cat. 17502048), 10 microM Y-27632 dihydrochloride (Tocris Bioscience, cat. 1254), and 50 ng/mL human EGF recombinant protein (Thermo Fisher Scientific, cat. PHG0311). The 485176-168-R4-J1-PDC line was cultured in Panc media, which includes all 6C/Colon 1B media components plus 100 ng/mL human FGF-10 (Thermo Fisher Scientific, cat. 100-26), 500 nM SB-431542 (Selleckchem, cat. S1067), and gastrin (Tocris, cat. 3006).
[…]
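Note: spheroids exposed to agents for seven days before readout.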
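Throughout, for viability, T/C: percent of vehicle control viability where 100% = DMSO wells.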

CC[C@@]1(O)C(=O)OCc2c1cc1n(c2=O)Cc2cc3c(CN(C)C)c(O)ccc3nc2-1 + Cc1[nH]c2ccc(F)cc2c1-c1nc2c3cccnc3c3ncccc3c2[nH]1
inactive: viability, T/C (second compound 0.0316 µM, first compound 0.000999 µM) 90.3% | viability, T/C (second compound 0.0316 µM, first compound 0.00316 µM) 114% | viability, T/C (second compound 0.0316 µM, first compound 0.00999 µM) 98.9% | viability, T/C (second compound 0.0316 µM, first compound 0.0316 µM) 97.6% | viability, T/C (second compound 0.0316 µM, first compound 0.0999 µM) 84.2% | viability, T/C (second compound 0.0316 µM, first compound 0.316 µM) 68.7% | viability, T/C (second compound 0.1 µM, first compound 0.000999 µM) 98.9% | viability, T/C (second compound 0.1 µM, first compound 0.00316 µM) 104% | viability, T/C (second compound 0.1 µM, first compound 0.00999 µM) 98% | viability, T/C (second compound 0.1 µM, first compound 0.0316 µM) 93.6% | viability, T/C (second compound 0.1 µM, first compound 0.0999 µM) 87.8% | viability, T/C (second compound 0.1 µM, first compound 0.316 µM) 74.6% | viability, T/C (second compound 0.316 µM, first compound 0.000999 µM) 85.5% | viability, T/C (second compound 0.316 µM, first compound 0.00316 µM) 83.9% | viability, T/C (second compound 0.316 µM, first compound 0.00999 µM) 96.7% | viability, T/C (second compound 0.316 µM, first compound 0.0316 µM) 78.2% | viability, T/C (second compound 0.316 µM, first compound 0.0999 µM) 80.8% | viability, T/C (second compound 0.316 µM, first compound 0.316 µM) 69.2% | viability, T/C (second compound 1 µM, first compound 0.000999 µM) 80.8% | viability, T/C (second compound 1 µM, first compound 0.00316 µM) 75.7% | viability, T/C (second compound 1 µM, first compound 0.00999 µM) 67.7% | viability, T/C (second compound 1 µM, first compound 0.0316 µM) 75.5% | viability, T/C (second compound 1 µM, first compound 0.0999 µM) 67% | viability, T/C (second compound 1 µM, first compound 0.316 µM) 60.5% | viability, T/C (second compound 3.16 µM, first compound 0.000999 µM) 42.8% | viability, T/C (second compound 3.16 µM, first compound 0.00316 µM) 30.9% | viability, T/C (second compound 3.16 µM, first compound 0.00999 µM) 35.1% | viability, T/C (second compound 3.16 µM, first compound 0.0316 µM) 34.2% | viability, T/C (second compound 3.16 µM, first compound 0.0999 µM) 33.3% | viability, T/C (second compound 3.16 µM, first compound 0.316 µM) 23.6% | viability, T/C (second compound 10 µM, first compound 0.000999 µM) 64.1% | viability, T/C (second compound 10 µM, first compound 0.00316 µM) 72.6% | viability, T/C (second compound 10 µM, first compound 0.00999 µM) 70.2% | viability, T/C (second compound 10 µM, first compound 0.0316 µM) 68.3% | viability, T/C (second compound 10 µM, first compound 0.0999 µM) 63.4% | viability, T/C (second compound 10 µM, first compound 0.316 µM) 49.1%
< 0.999 nM: IC50 (second compound 3.16 µM)
> 316 nM: IC50 (second compound 0.0316 µM) | IC50 (second compound 0.1 µM) | IC50 (second compound 0.316 µM) | IC50 (second compound 1 µM) | IC50 (second compound 10 µM)

From PubChem BioAssay AID2060502 (Molecular Pharmacology Branch, DTP, NCI, 2025)
